{"source": "a melting point compilation (Tetko et al.; mined from patent text by program, amines drawn as free bases though some values may be those of a salt)"}
{"units": {"melting point": "°C"}}
{"smiles": "CCOC(=O)c1c(Oc2ccc(Cl)cc2[N+](=O)[O-])c2ccccc2n1C", "melting point": "133 to 134"}
{"smiles": "CCOC(=O)C1=C(C)NC(=NC#N)N(C(=O)OCC)C1c1cccc([N+](=O)[O-])c1", "note": "(stereo unspecified)", "melting point": "174 to 175"}
{"smiles": "c1cc2c3c(c[nH]c3c1)CC1NCCOC21", "note": "(stereo unspecified)", "melting point": "175 to 177"}
{"smiles": "O=C1CCc2c(Oc3ccc([N+](=O)[O-])cn3)cccc21", "melting point": "119 to 123"}
{"smiles": "Cc1ccc(F)cc1C(=O)N1Cc2cccnc2Nc2ccccc21", "melting point": "138 to 140"}
{"smiles": "COC(=O)c1ccc(-c2nc(NCc3ccc(OC)c(Cl)c3)c3c(n2)sc2ccccc23)cc1", "melting point": "203 to 204"}
{"smiles": "CCN(C(=O)Cl)c1ccc2c(c1)OCO2", "melting point": "68 to 69"}
{"smiles": "Nn1nc(-c2ccc(Cl)cc2)cc1OCCN1CCCCC1", "melting point": 119}
{"smiles": "CC(C)CCCC(C)C1CCC2C3CC=C4CC(OC(=O)C(C)O)CCC4(C)C3CCC12C", "note": "(stereo unspecified)", "melting point": "120 to 122"}
{"smiles": "COc1cc2cc(N(C)C)sc2cc1OCc1ccccc1", "melting point": "140 to 142"}
{"smiles": "Cc1nn(-c2cc(O)c(Cl)cc2Cl)c(C)c1Cl", "melting point": "172 to 174"}
{"smiles": "CCC(CN1CCCCC1)C(=O)c1cc(-c2ccccc2)no1", "note": "(stereo unspecified)", "melting point": "83 to 84"}
{"smiles": "CN(C)C1CCCCCCCCCCC1N(C)C(=O)c1ccc(C(F)(F)F)cc1", "note": "(stereo unspecified)", "melting point": "69 to 70"}
{"smiles": "CCOC(=O)c1cc([N+](=O)[O-])c(Cl)nc1C(=O)OCC", "melting point": "70 to 72"}
{"smiles": "CCCCCCCCOc1cc(-n2c(=O)cc(C(F)(F)F)n(C)c2=O)c(F)cc1Cl", "melting point": "60 to 63"}
{"smiles": "COc1ccc(-c2csc(NC(=O)C(=O)OCC(C)c3ccccc3)n2)cc1", "note": "(stereo unspecified)", "melting point": "150 to 152"}
{"smiles": "O=C1c2cc3c(cc2CCC1NC(=O)C(F)(F)F)CCO3", "note": "(stereo unspecified)", "melting point": 208}
{"smiles": "Cc1cc(C)c(C)c(-c2cc3cnc(NCCCN4CCN(C)CC4)nc3nc2NC(=O)NC(C)(C)C)c1C", "melting point": "185 to 198"}
{"smiles": "CN(C(=O)COc1nc(C(Cl)(Cl)Cl)ns1)C1=CCCCC1", "melting point": 78}
{"smiles": "CC1CCCCC1C(=O)Nc1ccc(-c2cnc(-c3ccc(NC(=O)C4CCCCCC4)cc3)[nH]2)cc1", "note": "(stereo unspecified)", "melting point": "220 to 222"}
{"smiles": "CCOC(=O)c1ccc(-c2ccc(C#N)cc2)cc1", "melting point": "114 to 115"}
{"smiles": "COc1nc(NC(=O)NS(=O)(=O)c2ccccc2C)nc(N(C)C)n1", "melting point": "194 to 198"}
{"smiles": "Nc1ncccc1OCc1c(F)cccc1Cl", "melting point": "123 to 130"}
{"smiles": "CNC(=C[N+](=O)[O-])NCCCCCCCCCCCCN", "melting point": "123 to 125"}
{"smiles": "CC(=O)NC1(c2ccc(CN3CCN(c4nccs4)CC3)cc2)CC1", "melting point": "184 to 185"}
{"smiles": "Cc1ccc(C2=CCC(C)(C)c3cc(C(=O)c4ccc5cc(C(=O)O)ccc5c4)ccc32)cc1", "melting point": 267}
{"smiles": "CNC(=O)C=Cc1cn(C)nc1[N+](=O)[O-]", "melting point": "200 to 203"}
{"smiles": "CC1CCc2cc3c(cc21)OCC(=O)CO3", "note": "(stereo unspecified)", "melting point": "79 to 80"}
{"smiles": "CN(CCN(C)[C@H]1CC[C@H](c2ccc3[nH]c(=O)oc3c2)CC1)c1ccccc1", "melting point": "240 to 243"}
{"smiles": "CNC1=Nc2ccc(Cl)cc2N(c2ccccc2)C(=O)C1", "melting point": "215 to 217"}
{"smiles": "CCOC(=O)c1c[nH]c2nc(Nc3ccc(C)c(Cl)c3)nn2c1=O", "melting point": "> 340"}
{"smiles": "CC(C)(C)OC(=O)[C@@H]1CC[C@H](c2ccccc2)N1C(=O)CNC(=O)Nc1cccc(CC(=O)O)c1", "melting point": 112}
{"smiles": "N=C(N)Nc1ncc(CSCCNC2=NS(=O)N=C2N)s1", "note": "(stereo unspecified)", "melting point": "85 to 132"}
{"smiles": "CC(C)C[C@H](NC(=O)OCc1ccccc1)C(=O)N[C@@H](Cc1ccccc1)C(=O)CSCc1ccccn1", "melting point": "82 to 87"}
{"smiles": "CC(S)C(=O)NCc1noc(C(C)c2ccc(-c3ccccc3)c(F)c2)n1", "note": "(stereo unspecified)", "melting point": "94 to 95"}
{"smiles": "O=CC1CC1Nc1nccc(-n2nnc3ccccc32)n1", "note": "(stereo unspecified)", "melting point": "99 to 100"}
{"smiles": "CCn1c(=O)c2[nH]c(/C=C/c3ccccc3F)nc2n(CC)c1=O", "melting point": "> 270"}
{"smiles": "Cc1ccc(-c2nc(NC(=O)OCC[Si](C)(C)C)cs2)cc1", "melting point": "108 to 109"}
{"smiles": "O=C(O)CCCCc1cc(O)c(O)c(Cl)c1", "melting point": "99 to 101"}
{"smiles": "OCc1cc2occc2cn1", "melting point": "72 to 74"}
{"smiles": "CC(C)(C)c1ccc(/C=C/C(=O)Nc2ccc3c(c2)CCCC3)cc1", "melting point": "198 to 199"}
{"smiles": "Cc1ccc(S(=O)(=O)NC(=O)OCCc2ccc(-n3c(CCCc4ccccn4)nc4cc(C(F)(F)F)c(Cl)cc43)cc2)cc1", "melting point": 193}
{"smiles": "COc1cc(-c2cccc(Cl)c2)c2cc(C(O)(c3ccc(Cl)cc3)c3cncn3C)cc(NC(C)=O)c2n1", "note": "(stereo unspecified)", "melting point": 143}
{"smiles": "CC(C)Nc1cccnc1N1CCN(C(=O)c2ccc(C(=O)N3CCN(C4CCCC4)CC3)cc2)CC1", "melting point": "181 to 182"}
{"smiles": "COc1ccc(-c2cccc(NC(C)=O)c2)cc1OC1CCCC1", "melting point": "112 to 114"}
{"smiles": "C=C(Cc1ccccc1)C(=O)NN1CCN(C(=O)OC(C)(C)C)CC1", "melting point": 160}
{"smiles": "CCN(C(C)=O)c1cccc(-c2ccnc3c([N+](=O)[O-])cnn23)c1", "melting point": "176 to 178"}
{"smiles": "Nc1c(NC(=O)CC23CCCN2CCC3)cnc2ccccc12", "melting point": "205 to 209"}
{"smiles": "COCCNS(=O)(=O)c1ccc(Nc2nccc(-c3sc(-c4cccnc4)nc3C)n2)cc1", "melting point": "252 to 254"}
{"smiles": "CN1CCN(c2cc(Cl)cc3c2c(=O)n(CCCc2ccccc2)c(=O)n3Cc2ccccc2)CC1", "melting point": "55 to 63"}
{"smiles": "CN(C(=O)COc1nc2cccc(F)c2s1)c1ccccc1", "melting point": 116}
{"smiles": "N#Cc1ccc(C2NC(=O)Cc3ccccc32)cc1", "note": "(stereo unspecified)", "melting point": "165 to 168"}
{"smiles": "O=C(Sc1ccc(O)cc1)c1cccc(C(=O)Sc2ccc(O)cc2)c1", "melting point": "218 to 221"}
{"smiles": "O=C(Cl)c1ccc(Cl)cc1Sc1ccccc1", "melting point": "94 to 96"}
{"smiles": "O=C(Oc1cccc2ccccc12)n1c2c(c(=O)n(C3CCCCO3)c1=O)CCC2", "note": "(stereo unspecified)", "melting point": 160}
{"smiles": "Cn1cc(C(=O)NCc2ccc(Cl)cc2)c(=O)c2cc(CO)ccc21", "melting point": "168 to 170"}
{"smiles": "COc1cc2ccccc2c(=O)c2cc(Cl)sc12", "melting point": "190 to 194"}
{"smiles": "CC(O)=C(C#N)C(=O)Nc1ccc(Cl)cc1Cl", "melting point": "143 to 144"}
{"smiles": "COc1cccc2c(CC(=O)O)coc12", "melting point": "143 to 145"}
{"smiles": "COCc1cccc2c1OCCC(C(=O)OC)=C2", "melting point": "76 to 78"}
{"smiles": "O=C(Nc1cccc(S(=O)(=O)NCCO)c1)c1cnn2c(C(F)(F)F)cc(-c3ccc(C(F)(F)F)cc3)nc12", "melting point": 227}
{"smiles": "CCCCCCCCCCCCCCOc1ccc(CNc2ccccc2)cc1", "melting point": "58 to 59"}
{"smiles": "CC(C)CCSc1cc(C(=O)O)cc(N=Nc2cc(C(=O)O)cc(SCCC(C)C)c2C(=O)c2ccccc2)c1C(=O)c1ccccc1", "melting point": "143 to 144"}
{"smiles": "OCC1OC(c2ccc(Cl)c(Cc3ccc(-c4ccc(F)nc4)s3)c2)C(O)C(O)C1O", "note": "(stereo unspecified)", "melting point": "131 to 134"}
{"smiles": "CCc1noc(C)c1-c1[nH]c2ccccc2c1C(=O)CCC(=O)N(C)C", "melting point": "144 to 148"}
{"smiles": "CCc1nc2c(-c3ccc(Cl)cc3Cl)nnc(C)c2n1C(CC)CC", "melting point": "63 to 64"}
{"smiles": "C=Cc1ccc(CSCCNC(=S)CCC(=O)O)cc1", "melting point": "97 to 99"}
{"smiles": "Nc1ncc(CCN2CCN(c3ccccn3)CC2)s1", "melting point": "158 to 161"}
{"smiles": "COc1cccc2c1C(c1ccccc1Cl)NC(=O)C2", "note": "(stereo unspecified)", "melting point": "230 to 233"}
{"smiles": "N#CCCCNc1cccc(/C=C/c2nc3ccccc3s2)c1", "melting point": "97 to 98"}
{"smiles": "COCC1(CC(=O)O)OCC(=O)c2c1[nH]c1ccccc21", "note": "(stereo unspecified)", "melting point": "135 to 140"}
{"smiles": "CSc1ncc(OCc2cccnc2)c(=O)[nH]1", "melting point": "186 to 187"}
{"smiles": "CC(=Cc1ccccc1)C(=O)c1ccc(O)c(CC(=O)O)c1", "melting point": 192}
{"smiles": "NC1(c2cccc(Br)c2)CC1", "melting point": "135 to 137"}
{"smiles": "O=C(OCC(=O)N1CCCCC1)c1ccc(O)cc1", "melting point": "160 to 164"}
{"smiles": "N#CC(=CN1CCOCC1)C(C[N+](=O)[O-])c1cccc(Cl)c1Cl", "note": "(stereo unspecified)", "melting point": "74 to 77"}
{"smiles": "C[C@H](NS(=O)(=O)C12CC3CC(CC(C3)C1)C2)C(=O)N1CCC[C@H]1C(=O)Nc1ccccc1", "melting point": "138 to 141"}
{"smiles": "OCc1cn(-c2ccc(-c3ccccc3)cc2)cn1", "melting point": "173 to 177"}
{"smiles": "CC(C)Nc1nc(Cl)nc(Cl)c1[N+](=O)[O-]", "melting point": 65}
{"smiles": "O=C(O)c1cc2sccc2nc1C(=O)O", "melting point": "> 380"}
{"smiles": "CCOC(=O)c1sc2c(c1C)c(N)c(C(=O)c1ccccc1)n2C(C)=O", "melting point": 188}
{"smiles": "FC1CCC2C3Cc4ccccc4C2(CCN3)C1", "note": "(stereo unspecified)", "melting point": "93 to 97"}
{"smiles": "CCOC(=O)C(C)Oc1ccc(Oc2ccc3cc(Br)ccc3n2)cc1", "note": "(stereo unspecified)", "melting point": 85}
{"smiles": "CC(=O)NCc1ccc(CN2CCN(c3ccc(F)cc3F)CC2)cc1", "melting point": "94 to 95"}
{"smiles": "C=CCCc1ccc(C#N)c(O)n1", "melting point": "122 to 125"}
{"smiles": "CCCc1nc2ccccc2n1Cc1ccc(C2CCCC2C(=O)O)cc1", "note": "(stereo unspecified)", "melting point": "179 to 180"}
{"smiles": "CCCCCCCCCCCCCCCCCCNC(=O)C(=O)Nc1ccc(Sc2ccc(O)cc2)cc1", "melting point": 163}
{"smiles": "CC1(CNc2ccccc2)SC2C(NC(=O)Cc3ccccc3)C(=O)N2C1C(=O)OCC(Cl)(Cl)Cl", "note": "(stereo unspecified)", "melting point": "148 to 149"}
{"smiles": "CON1CCC2(CC1)NC(=O)C(c1cc(C)ccc1C)=C2O", "melting point": "176 to 177"}
{"smiles": "CN(C)CCNC(=O)N1CCN(c2ccc([N+](=O)[O-])cc2)CC1", "melting point": "115 to 120"}
{"smiles": "CC(C)(CO)Nc1nc(-c2cccc(Br)c2)cs1", "melting point": "116 to 120"}
{"smiles": "CCOc1ccc2c(c1)n(C1CCCCC1)c(=O)n2S(=O)(=O)c1ccc(NC(=O)N(CC)CC)cc1OC", "melting point": 165}
{"smiles": "NC(=O)NN=Cc1ccc(Oc2ccc3c(c2)CCC3)cc1", "melting point": "218 to 220"}
{"smiles": "CS(=O)(=O)c1ccc(-c2cnn(-c3cccc(Cl)c3)c(=O)c2Cc2ccc(F)cc2)cc1", "melting point": "183 to 185"}
{"smiles": "COc1ccc2c(c1)c1c3c(c(-c4c(Cl)cccc4Cl)cc1n2CCO)C(=O)NC3=O", "melting point": "229 to 231"}
{"smiles": "O=CN(O)C1(CS(=O)(=O)c2ccc(Oc3ccc(OC(F)(F)F)cc3)cc2)CCC(C(=O)O)CC1", "note": "(stereo unspecified)", "melting point": 207}
{"smiles": "O=CNc1nc2c(s1)-c1nc(-c3ccccc3)ncc1CC2", "melting point": "304 to 306"}
{"smiles": "Cc1nc(NC2CCCC2O)c2ncn(C3OC(CO)C(O)C3O)c2n1", "note": "(stereo unspecified)", "melting point": "188 to 192"}
{"smiles": "CC(C)(C)OC(=O)N1CCN(c2cncc(Cl)n2)CC1", "melting point": 108}
{"smiles": "CS(=O)(=O)Nc1cc(OC[C@@H](O)CNC2CCN(c3ccc(C#N)cc3)CC2)ccc1O", "melting point": "78 to 80"}
{"smiles": "COc1cccc(-c2cc(=O)c3cccc(C(=O)Nc4ccc(CCCCN5CCc6cc(OC)c(OC)cc6C5)cc4)c3[nH]2)c1", "melting point": 116}
